# Test results published in EPA's ToxValDB 9.5 (doi:10.2903/j.efsa.2009.343r).
# Key:
# Anas platyrhynchos = conditions: oral, mortality
# Apis mellifera = conditions: acute; duration: 48 hours; oral; unspecified; mortality
# Canidae = conditions: subchronic; duration: 90 days; oral; Dog Other; histopathology: nonneoplastic
# Colinus virginianus = conditions: for NOEL: reproduction developmental
# Daphnia magna = conditions: chronic/long-term; duration: 21 days
# Oncorhynchus mykiss = conditions: acute; duration: 96 hours; mortality
# Oryctolagus sp. = conditions: reproduction developmental; body weight
# Pimephales promelas = conditions: chronic/long-term; duration: 36 days; development
# Tagia sp. = conditions: acute; duration: 14 days; mortality
# Typhlodromus pyri [1] = conditions: not reported; F; reproduction
# Typhlodromus pyri [2] = test: LR50; higher = less toxic; conditions: not reported; mortality
smiles,measurement,setting,value
COc1cnc(OC)n2nc(NS(=O)(=O)c3c(OCC(F)F)cccc3C(F)(F)F)nc12 [Penoxsulam],LD50,"Anas platyrhynchos; acute, unspecified",> 2000 mg/kg-day
same,LC50,"Anas platyrhynchos; short-term, duration: 8 days, feed",> 1120 mg/kg-day
same,LD50,Apis mellifera,> 100 µg/piece
same,NOAEL,Canidae,18 mg/kg-day
same,LC50,"Colinus virginianus; acute, duration: 8 days, oral, diet, mortality",> 804 mg/kg-day
same,NOEL,Colinus virginianus; F,80.1 mg/kg-day
same,NOEL,Colinus virginianus; M,82.5 mg/kg-day
same,NOEC,Daphnia magna,3.33 mg/L
same,LC50,Oncorhynchus mykiss,> 100 µg/mL
same,NOAEL,Oryctolagus sp.,25 mg/kg-day
same,NOEC,Pimephales promelas,10 mg/L
same,LD50,"Rattus norvegicus; acute, oral, mortality",> 5000 mg/kg-day
same,NOAEL,"Rattus norvegicus; chronic, duration: 2 years, histopathology: nonneoplastic",5 mg/kg-day
same,NOAEL,"Rattus norvegicus; reproduction developmental, body weight",100 mg/kg-day
same,NOAEL,"Rattus norvegicus; reproduction developmental, reproduction",300 mg/kg-day
same,LC50,Tagia sp.,> 1000 mg/kg
same,LEL,Typhlodromus pyri [1],4 g/ha
same,LR50,Typhlodromus pyri [2],7.46 g/ha
